For one test, the system named is ED1 positive cells. Description: Quantification of infiltrating ED1 positive cells on histological sections in EIU. It is filed as in vivo, Lewis rats. To be noted: 24 hours after LPS challenge, mean ± SEM. As to the method:
For immunohistochemistry, eyeballs were collected and fixed for 1h at room temperature in phosphate buffered saline (PBS) containing 4% paraformaldehyde before being rinsed overnight in PBS. The next day, samples were embedded and frozen in optimal cutting-temperature (OCT) compound (Tissue-Tek®, Sakura Finetek, Zoeterwoude, Netherland) and stored at -80°C. Frozen antero-posterior sections of eyes (10 µm thick) were performed at the optic nerve level using a cryostat (Leica CM 3050S, Rueil-Malmaison, France) and mounted on super-frost slides for immunohistochemical analysis.
(§1) A second set of experiment was designed to evaluate the anti-inflammatory effect of the JNK-inhibitor (poly-)peptide of SEQ ID NO: 11 at the cellular and tissue level as well as the biodistribution of this molecule 24 hours after administration. Rats were randomized into 11 experimental groups. 6 groups of rats with uveitis: untreated uveitic rats, rats injected intravenously with NaCl or the JNK-inhibitor (poly-)peptide of SEQ ID NO: 11 and rats injected intravitreously with the vehicle, the JNK-inhibitor (poly-)peptide of SEQ ID NO: 11 or dexamethasone. The 5 additional groups without uveitis were: untreated healthy rats, rats treated by NaCl IV or the JNK-inhibitor (poly-)peptide of SEQ ID NO: 11 IV and rats injected IVT with NaCl or the JNK-inhibitor (poly-)peptide of SEQ ID NO: 11. Three eyes from separate rats were collected per group and used for immunohistochemistry.
To characterize the cellular infiltrate, sections were double-stained with ED1 and iNOS. […] After staining nuclei with DAPI (Sigma-Aldrich, Saint-Quentin Fallavier, France), sections were mounted in PBS/Glycerol (1/1) and observed by fluorescence photomicroscopy (FXA, Microphot, Nikon, Melville, USA). […] ED1 positive cells and polymorphonuclear cells, identified by the shape of their nuclei stained with DAPI, were quantified on histological sections. […] Results were expressed as mean ± standard error of the mean (SEM).

Test [1] deals with phospho-p44/42 MAPK (Erk1/2). Description: Immunohistochemistry of p-Erk1/2 on ocular sections in EIU. The class given is in vivo, Lewis rats. To be noted: 24h. The procedure:
as §1, with “immunohistochemistry. Immunostaining of p-Erk1/2 was performed to evaluate the effect of the JNK-inhibitor (poly-)peptide of SEQ ID NO: 11 on the ERK pathway after IV or IVT administration. Sections were permeabilized as described above and incubated in blocking solution containing 0.1% Triton X-100 and 10% FCS (fetal calf serum) in PBS for 1 hour at room temperature. […]” for “immunohistochemistry.”

Each structure is given as a SMILES string.

Consider `CC(C)C[C@@H](NC(=O)[C@@H](Cc1ccccc1)NC(=O)[C@H]1CCCN1C(=O)[C@@H](CCC(N)=O)NC(=O)[C@H](NC(=O)[C@H]1CCCN1C(=O)[C@@H](CCCNC(=N)N)NC(=O)[C@@H](CO)NC(=O)[C@@H](CCC(N)=O)NC(=O)[C@H](N)CC(=O)O)C(C)C)C(=O)N[C@H](CC(N)=O)C(=O)N[C@H](CC(C)C)C(=O)N[C@@H](C(=O)N[C@@H](C(=O)N1CCC[C@@H]1C(=O)N[C@H](CCCNC(=N)N)C(=O)N[C@H](CCCCN)C(=O)N1CCC[C@@H]1C(=O)N[C@H](CCCNC(=N)N)C(=O)N1CCC[C@@H]1C(=O)N1CCC[C@@H]1C(=O)N[C@H](CCCNC(=N)N)C(=O)N[C@H](CCCNC(=N)N)C(=O)N[C@H](CCCNC(=N)N)C(=O)N[C@H](CCC(N)=O)C(=O)N[C@H](CCCNC(=N)N)C(=O)N[C@H](CCCNC(=N)N)C(=O)N[C@H](CCCCN)C(=O)N[C@H](CCCCN)C(=O)N[C@H](CCCNC(=N)N)C(=O)NCC(=O)O)[C@H](C)O)[C@H](C)O` [SEQ ID NO: 11], for which the “number of ED1 positive cells” value in the test with ED1 positive cells (IV injection (20 µg/kg)) is 137 ± 7. In addition, the “number of ED1 positive infiltrating cells” value with ED1 positive cells (IVT injection (SEQ ID NO: 11: 0.2 µg/injection)) is 93 ± 8. Further, the “effect on p-Erk1/2 signal in the iris epithelium” value in test [1] (iris epithelium) is recorded as “no effect”. Further, the “effect on p-Erk1/2 in retinal Müller glial (RMG) cells” value in test [1] (neuroretina, administered by either route (IV or IVT)) is “no effect”.

Values taken from patent EP2902035B1, “Cell-permeable peptide inhibitors of the JNK signal transduction pathway for use in the treatment of inflammatory eye diseases” (Xigen Inflammation Ltd., priority 2010, dated 2012).
